SMILES strings stand for the structures. Structures can show the parent of a compound that is named as a salt.

The test deals with T1, human factor XIa (Homo sapiens, UniProt P03951).
T1 construct: purchased Kordia
T1 sequence (P03951 388-625 limits assumed): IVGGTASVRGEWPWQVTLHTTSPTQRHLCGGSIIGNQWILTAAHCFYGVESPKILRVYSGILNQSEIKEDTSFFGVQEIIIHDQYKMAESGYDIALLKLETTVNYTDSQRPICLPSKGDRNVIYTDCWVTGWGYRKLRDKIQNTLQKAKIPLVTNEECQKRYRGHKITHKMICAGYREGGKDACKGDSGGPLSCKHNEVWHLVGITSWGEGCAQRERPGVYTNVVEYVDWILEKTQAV
T1 sequence (P03951 19-387 partner limits assumed): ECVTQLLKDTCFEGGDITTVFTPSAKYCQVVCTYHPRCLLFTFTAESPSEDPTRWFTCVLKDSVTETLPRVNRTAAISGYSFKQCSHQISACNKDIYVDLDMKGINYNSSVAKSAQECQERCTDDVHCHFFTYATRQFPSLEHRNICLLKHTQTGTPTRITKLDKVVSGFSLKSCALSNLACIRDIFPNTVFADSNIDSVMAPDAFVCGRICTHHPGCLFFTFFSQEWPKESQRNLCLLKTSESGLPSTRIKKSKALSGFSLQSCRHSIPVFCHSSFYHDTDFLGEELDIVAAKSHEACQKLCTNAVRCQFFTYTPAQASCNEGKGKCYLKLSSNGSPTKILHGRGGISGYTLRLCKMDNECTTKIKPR
The test can be described thus: Measurement of FXIa inhibition (fluorogenic peptide substrate Boc-Glu(OBzl)-Ala-Arg-AMC). The settings on record: factor XIa from Kordia 0.45 nM, 15 min pre-incubation, 30 min at 22° C., fluorescence. The format is biochemical. The method, then: The factor XIa inhibition of the substances according to the invention is determined using a biochemical test system which utilizes the reaction of a peptidic factor XIa substrate to determine the enzymatic activity of human factor XIa. Here, factor XIa cleaves from the peptic factor XIa substrate the C-terminal aminomethylcoumarin (AMC), the fluorescence of which is measured. The determinations are carried out in microtitre plates.
Test substances are dissolved in dimethyl sulphoxide and serially diluted in dimethyl sulphoxide (3000 μM to 0.0078 μM; resulting final concentrations in the test: 50 μM to 0.00013 μM). In each case 1 μl of the diluted substance solutions is placed into the wells of white microtitre plates from Greiner (384 wells). Subsequently, the following are added successively: 20 μl of assay buffer (50 mmol/l Tris buffer pH 7.4; 100 mmol/l sodium chloride; 5 mmol/l calcium chloride; 0.1% bovine serum albumin) and 20 μl of factor XIa from Kordia (0.45 nM in assay buffer). After 15 min of incubation, the enzyme reaction is started by addition of 20 μl of the factor XIa substrate Boc-Glu(OBzl)-Ala-Arg-AMC dissolved in assay buffer (10 μM in assay buffer) from Bachem, the mixture is incubated at room temperature (22° C.) for 30 min and fluorescence is then measured (excitation: 360 nm, emission: 460 nm). The measured emissions of the test batches with test substance are compared to those of control batches without test substance (only dimethyl sulphoxide instead of test substance in dimethyl sulphoxide), and IC50 values are calculated from the concentration/activity relationships.
Take `NC[C@H]1CC[C@H](C(=O)N[C@@H](Cc2cccc(-c3ccc(C(=O)N4CCOCC4)cc3)c2)C(=O)Nc2ccc(-c3nnc(Cl)[nH]3)cc2)CC1` [Example 26, trans-4-(Aminomethyl)-N-{(2S)-1-{[4-(3-chloro-4H-1,2,4-triazol-5-yl)phenyl]amino}-3-[4′-(morpholin-4-ylcarbonyl)biphenyl-3-yl]-1-oxopropan-2-yl}cyclohexanecarboxamide hydrochloride]: the IC50 – broadly, the midpoint of a concentration-inhibition curve – came to 4.5 nM.

On to `Cc1ccc(C[C@H](NC(=O)C2CCC(CN)CC2)C(=O)Nc2ccc(-c3nnn[nH]3)cc2)cc1-c1cccc(C(=O)NC2C3CNCC32)c1` (stereo partly drawn) [Example 35, 5′-[(2S)-2-({[trans-4-(Aminomethyl)cyclohexyl]carbonyl}amino)-3-oxo-3-{[4-(1H-tetrazol-5-yl)phenyl]amino}propyl]-N-(3-azabicyclo[3.1.0]hex-6-yl)-2′-methylbiphenyl-3-carboxamide hydrochloride], for which the IC50 was 10 nM. Then `NCCNC(=O)c1ccc(-c2cccc(C[C@H](NC(=O)[C@H]3CC[C@H](CN)CC3)C(=O)Nc3ccc4cn[nH]c4c3)c2)cc1` [Example 50, N-(2-Aminoethyl)-3′-[(2S)-2-({[trans-4-(aminomethyl)cyclohexyl]carbonyl}amino)-3-(1H-indazol-6-ylamino)-3-oxopropyl]biphenyl-4-carboxamide hydrochloride], with 55 nM. Then `COCc1nnc(-c2ccc(NC(=O)[C@H](Cc3cccc(-c4ccccc4C(C)C)c3)NC(=O)[C@H]3CC[C@H](CN)CC3)cc2)[nH]1` [Example 104, trans-4-(Aminomethyl)-N-[(2S)-3-(2′-isopropylbiphenyl-3-yl)-1-({4-[3-(methoxymethyl)-4H-1,2,4-triazol-5-yl]phenyl}amino)-1-oxopropan-2-yl]cyclohexanecarboxamide hydrochloride], with 8.6 nM. `NC[C@H]1CC[C@H](C(=O)N[C@@H](Cc2cccc(-c3cnc(N4CCOCC4)nc3)c2)C(=O)Nc2ccc(-c3nnn[nH]3)cc2)CC1` [Example 74, N-alpha-{[trans-4-(Aminomethyl)cyclohexyl]carbonyl}-3-[2-(morpholin-4-yl)pyrimidin-5-yl]-N-[4-(1H-tetrazol-5-yl)phenyl]-L-phenylalaninamide hydrochloride] returned an IC50 of 2.1 nM. Under `CCN(CC)CCNC(=O)c1ccc(-c2cccc(C[C@H](NC(=O)[C@H]3CC[C@H](CN)CC3)C(=O)Nc3ccc4cn[nH]c4c3)c2)cc1` [Example 53, 3′-[(2S)-2-({[trans-4-(Aminomethyl)cyclohexyl]carbonyl}amino)-3-(1H-indazol-6-ylamino)-3-oxopropyl]-N-[2-(diethylamino)ethyl]biphenyl-4-carboxamide hydrochloride] stands 17 nM; under `NC[C@H]1CC[C@H](C(=O)N[C@@H](Cc2cccc(-c3cncc(N)c3)c2)C(=O)Nc2ccc(-c3nnn[nH]3)cc2)CC1` [Example 72, N-alpha-{[trans-4-(Aminomethyl)cyclohexyl]carbonyl}-3-(5-aminopyridin-3-yl)-N-[4-(1H-tetrazol-5-yl)phenyl]-L-phenylalaninamide hydrochloride], 5.3 nM.

In the case of `CN(C)c1ncc(-c2cccc(C[C@H](NC(=O)[C@H]3CC[C@H](CN)CC3)C(=O)Nc3ccc4[nH]c(=O)[nH]c4c3)c2)cn1` [Example 73, N-alpha-{[trans-4-(Aminomethyl)cyclohexyl]carbonyl}-3-[2-(dimethylamino)pyrimidin-5-yl]-N-(2-oxo-2,3-dihydro-1H-benzimidazol-5-yl)-L-phenylalaninamide hydrochloride], the IC50 stood at 25 nM.

In turn, `NC[C@H]1CC[C@H](C(=O)N[C@@H](Cc2cccc(-c3cnc(O)nc3)c2)C(=O)Nc2ccc(-c3nnn[nH]3)cc2)CC1` [Example 99, N-alpha-{[trans-4-(Aminomethyl)cyclohexyl]carbonyl}-3-(2-hydroxypyrimidin-5-yl)-N-[4-(1H-tetrazol-5-yl)phenyl]-L-phenylalaninamide hydrochloride] came in with a 50% inhibitory concentration (IC50) of 8.9 nM. Under `Cc1ccc(C[C@H](NC(=O)[C@H]2CC[C@H](CN)CC2)C(=O)Nc2ccc(-c3nnn[nH]3)cc2)cc1-c1cccc(C(=O)NCCOCCOCCO)c1` [Example 28, 5′-[(2S)-2-({[trans-4-(Aminomethyl)cyclohexyl]carbonyl}amino)-3-oxo-3-{[4-(1H-tetrazol-5-yl)phenyl]amino}propyl]-N-{2-[2-(2-hydroxyethoxy)ethoxy]ethyl}-2′-methylbiphenyl-3-carboxamide hydrochloride] stands 5.2 nM; under `CN1CCN(c2cc(-c3cccc(C[C@H](NC(=O)[C@H]4CC[C@H](CN)CC4)C(=O)Nc4ccc(-c5nnn[nH]5)cc4)c3)ccn2)CC1` [Example 65, N-alpha-{[trans-4-(Aminomethyl)cyclohexyl]carbonyl}-3-[2-(4-methylpiperazin-1-yl)pyridin-4-yl]-N-[4-(1H-tetrazol-5-yl)phenyl]-L-phenylalaninamide hydrochloride], 12 nM; under `Cc1cc(C(=O)NC2CCNCC2)ccc1-c1cccc(C[C@H](NC(=O)[C@H]2CC[C@H](CN)CC2)C(=O)Nc2ccc(-c3nnn[nH]3)cc2)c1` [Example 15, 3′-[(2S)-2-({[trans-4-(Aminomethyl)cyclohexyl]carbonyl}amino)-3-oxo-3-{[4-(1H-tetrazol-5-yl)phenyl]amino}propyl]-2-methyl-N-(piperidin-4-yl)biphenyl-4-carboxamide hydrochloride], 7.7 nM. The molecule `NC[C@H]1CC[C@H](C(=O)N[C@@H](Cc2cccc(-c3ccnc(N4CCOCC4)c3)c2)C(=O)Nc2ccc(-c3nn[nH]n3)cc2)CC1` [Example 85, N-alpha-{[trans-4-(Aminomethyl)cyclohexyl]carbonyl}-3-[2-(morpholin-4-yl)pyridin-4-yl]-N-[4-(2H-tetrazol-5-yl)phenyl]-L-phenylalaninamide hydrochloride] displayed an IC50 of 2.4 nM.

Turning to `Cc1cc(C(=O)NCCOCCOCCO)ccc1-c1cccc(C[C@H](NC(=O)[C@H]2CC[C@H](CN)CC2)C(=O)Nc2ccc(-c3nnn[nH]3)cc2)c1` [Example 25, 3′-[(2S)-2-({[trans-4-(Aminomethyl)cyclohexyl]carbonyl}amino)-3-oxo-3-{[4-(1H-tetrazol-5-yl)phenyl]amino}propyl]-N-{2-[2-(2-hydroxyethoxy)ethoxy]ethyl}-2-methylbiphenyl-4-carboxamide hydrochloride], the IC50 is 4.4 nM. For `NC[C@H]1CC[C@H](C(=O)N[C@@H](Cc2cccc(-c3cnc(N4CCOCC4)nc3)c2)C(=O)Nc2ccc(-c3n[nH]c(=O)[nH]3)cc2)CC1` [Example 88, N-alpha-{[trans-4-(Aminomethyl)cyclohexyl]carbonyl}-3-[2-(morpholin-4-yl)pyrimidin-5-yl]-N-[4-(5-oxo-4,5-dihydro-1H-1,2,4-triazol-3-yl)phenyl]-L-phenylalaninamide hydrochloride], the IC50 was 29 nM. `CN1CCN(c2ccc(-c3cccc(C[C@H](NC(=O)[C@H]4CC[C@H](CN)CC4)C(=O)Nc4ccc(-c5nnn[nH]5)cc4)c3)cn2)CC1` [Example 77, N-alpha-{[trans-4-(Aminomethyl)cyclohexyl]carbonyl}-3-[6-(4-methylpiperazin-1-yl)pyridin-3-yl]-N-[4-(1H-tetrazol-5-yl)phenyl]-L-phenylalaninamide hydrochloride] displayed an IC50 of 7.3 nM.

(Values after US20160244437A1, “SUBSTITUTED PHENYLALANINE DERIVATIVES” (BAYER PHARMA AKTIENGESELLSCHAFT, priority 2013, published 2016).)
